According to the supplement of paper PMC4862054:

Columns and labels:
Experiment in all cases: normalised viability (% of control), CellTiter-Blue; higher = more viable cells (about 100 = DMSO control)
Settings in all cases: incubation time: 72 h
MDA-MB-231 [1] = test system: MDA-MB-231
In short: (§1)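 Each value is normalised viability at a single listed concentration of the series. Breast cancer cell lines in 384-well plates were incubated 72 h with compound and read by CellTiter-Blue fluorescence at 560/590 nm, with vehicle set to 100 and a positive kill control to 0 on every plate.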

HCC1937 [2] = test system: HCC1937
In short: as §1

CAL-51 [3] = test system: CAL-51
In short: as §1

DU-4475 [4] = test system: DU-4475
In short: as §1

SK-BR-3 [5] = test system: SK-BR-3
In short: as §1

BT-474 [6] = test system: BT-474
In short: as §1

HCC1599 [7] = test system: HCC1599
In short: as §1

MDA-MB-231 [8] = test system: MDA-MB-231; remark: listed apart in the source
In short: as §1

CAL-120 = test system: CAL-120
In short: as §1

HCC1937 [9] = test system: HCC1937; remark: listed apart in the source
In short: as §1

Hs578T = test system: Hs578T
In short: as §1

CAL-85-1 [10] = test system: CAL-85-1
In short: as §1

CAL-51 [11] = test system: CAL-51; remark: listed apart in the source
In short: as §1

MDA-MB-453 = test system: MDA-MB-453
In short: as §1

MDA-MB-436 [12] = test system: MDA-MB-436
In short: as §1

BT-549 = test system: BT-549
In short: as §1

HDQ-P1 [13] = test system: HDQ-P1
In short: as §1

DU-4475 [14] = test system: DU-4475; remark: listed apart in the source
In short: as §1

CAL-148 = test system: CAL-148
In short: as §1

SK-BR-3 [15] = test system: SK-BR-3; remark: listed apart in the source
In short: as §1

HCC1143 [16] = test system: HCC1143
In short: as §1

BT-474 [17] = test system: BT-474; remark: listed apart in the source
In short: as §1

MFM-223 = test system: MFM-223
In short: as §1

MDA-MB-468 = test system: MDA-MB-468
In short: as §1

HCC1599 [18] = test system: HCC1599; remark: listed apart in the source
In short: as §1

HCC1937 [19] = test system: HCC1937; remark: listed apart in the source
Experimental: (§2)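 DSRT, CellTiter-Blue viability, 72 h incubation. Signal is normalised to DMSO and benzethonium chloride controls. Value is the normalised response at dose 3.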

CAL-85-1 [20] = test system: CAL-85-1; remark: listed apart in the source
Experimental: as §2

CAL-51 [21] = test system: CAL-51; remark: listed apart in the source
Experimental: as §2

MDA-MB-436 [22] = test system: MDA-MB-436; remark: listed apart in the source
Experimental: as §2

HDQ-P1 [23] = test system: HDQ-P1; remark: listed apart in the source
Experimental: as §2

SK-BR-3 [24] = test system: SK-BR-3; remark: listed apart in the source
Experimental: as §2

HCC1143 [25] = test system: HCC1143; remark: listed apart in the source
Experimental: as §2

BT-474 [26] = test system: BT-474; remark: listed apart in the source
Experimental: as §2

HCC1599 [27] = test system: HCC1599; remark: listed apart in the source
Experimental: as §2

Compound: C[C@]12CC[C@H](O)CC1=CC[C@@H]1[C@@H]2CC[C@]2(C)C(c3cccnc3)=CC[C@@H]12 [Abiraterone]
- normalised viability (MDA-MB-231 [1]; 5000 nM): 131%
- normalised viability (HCC1937 [2]; 5000 nM): 101%
- normalised viability (CAL-51 [3]; 50 nM): 104%
- normalised viability (DU-4475 [4]; 50 nM): 90.2%
- normalised viability (SK-BR-3 [5]; 5000 nM): 93.5%
- normalised viability (BT-474 [6]; 5000 nM): 98.8%
- normalised viability (HCC1599 [7]; 5000 nM): 120%
- normalised viability (MDA-MB-231 [8]; 500 nM): 106%
- normalised viability (CAL-120; 500 nM): 81.4%
- normalised viability (HCC1937 [9]; 500 nM): 83%
- normalised viability (Hs578T; 500 nM): 116%
- normalised viability (CAL-85-1 [10]; 15 nM): 80.5%
- normalised viability (CAL-51 [11]; 15 nM): 107%
- normalised viability (MDA-MB-453; 15 nM): 110%
- normalised viability (MDA-MB-436 [12]; 500 nM): 104%
- normalised viability (BT-549; 500 nM): 111%
- normalised viability (HDQ-P1 [13]; 15 nM): 108%
- normalised viability (DU-4475 [14]; 15 nM): 80.8%
- normalised viability (CAL-148; 15 nM): 84.2%
- normalised viability (SK-BR-3 [15]; 500 nM): 101%
- normalised viability (HCC1143 [16]; 500 nM): 80.2%
- normalised viability (BT-474 [17]; 500 nM): 116%
- normalised viability (MFM-223; 500 nM): 96.6%
- normalised viability (MDA-MB-468; 500 nM): 106%
- normalised viability (HCC1599 [18]; 500 nM): 385%
- normalised viability (HCC1937 [19]; 50 nM): 98.9%
- normalised viability (CAL-85-1 [20]; 5 nM): 91.1%
- normalised viability (CAL-51 [21]; 5 nM): 106%
- normalised viability (MDA-MB-436 [22]; 50 nM): 126%
- normalised viability (HDQ-P1 [23]; 5 nM): 109%
- normalised viability (SK-BR-3 [24]; 50 nM): 73.4%
- normalised viability (HCC1143 [25]; 50 nM): 75.2%
- normalised viability (BT-474 [26]; 50 nM): 112%
- normalised viability (HCC1599 [27]; 50 nM): 102%

Compound: CNNCc1ccc(C(=O)NC(C)C)cc1 [Procarbazine]
- normalised viability (MDA-MB-231 [1]; 10000 nM): 109%
- normalised viability (HCC1937 [2]; 10000 nM): 81.7%
- normalised viability (CAL-51 [3]; 100 nM): 96.4%
- normalised viability (DU-4475 [4]; 100 nM): 91.3%
- normalised viability (SK-BR-3 [5]; 10000 nM): 106%
- normalised viability (BT-474 [6]; 10000 nM): 113%
- normalised viability (HCC1599 [7]; 10000 nM): 90%
- normalised viability (MDA-MB-231 [8]; 1000 nM): 119%
- normalised viability (CAL-120; 1000 nM): 99%
- normalised viability (HCC1937 [9]; 1000 nM): 77.8%
- normalised viability (Hs578T; 1000 nM): 103%
- normalised viability (CAL-85-1 [10]; 30 nM): 87.4%
- normalised viability (CAL-51 [11]; 30 nM): 106%
- normalised viability (MDA-MB-453; 30 nM): 114%
- normalised viability (MDA-MB-436 [12]; 1000 nM): 88.8%
- normalised viability (BT-549; 1000 nM): 98.8%
- normalised viability (HDQ-P1 [13]; 30 nM): 103%
- normalised viability (DU-4475 [14]; 30 nM): 107%
- normalised viability (CAL-148; 30 nM): 101%
- normalised viability (SK-BR-3 [15]; 1000 nM): 113%
- normalised viability (HCC1143 [16]; 1000 nM): 105%
- normalised viability (BT-474 [17]; 1000 nM): 114%
- normalised viability (MFM-223; 1000 nM): 95.5%
- normalised viability (MDA-MB-468; 1000 nM): 124%
- normalised viability (HCC1599 [18]; 1000 nM): 88.9%
- normalised viability (HCC1937 [19]; 100 nM): 85.3%
- normalised viability (CAL-85-1 [20]; 10 nM): 97.8%
- normalised viability (CAL-51 [21]; 10 nM): 109%
- normalised viability (MDA-MB-436 [22]; 100 nM): 97%
- normalised viability (HDQ-P1 [23]; 10 nM): 128%
- normalised viability (SK-BR-3 [24]; 100 nM): 92%
- normalised viability (HCC1143 [25]; 100 nM): 98.7%
- normalised viability (BT-474 [26]; 100 nM): 114%
- normalised viability (HCC1599 [27]; 100 nM): 94.8%

Compound: COc1ccc(-c2ccc3c(N4CCOC[C@@H]4C)nc(N4CCOC[C@@H]4C)nc3n2)cc1CO [AZD8055]
- normalised viability (MDA-MB-231 [1]; 10000 nM): 22.7%
- normalised viability (HCC1937 [2]; 10000 nM): 40.3%
- normalised viability (CAL-51 [3]; 100 nM): 27.3%
- normalised viability (DU-4475 [4]; 100 nM): 58.6%
- normalised viability (SK-BR-3 [5]; 10000 nM): 10.4%
- normalised viability (BT-474 [6]; 10000 nM): 16.9%
- normalised viability (HCC1599 [7]; 10000 nM): 43.4%
- normalised viability (MDA-MB-231 [8]; 1000 nM): 23.9%
- normalised viability (CAL-120; 1000 nM): 13.9%
- normalised viability (HCC1937 [9]; 1000 nM): 32.6%
- normalised viability (Hs578T; 1000 nM): 23.7%
- normalised viability (CAL-85-1 [10]; 30 nM): 56.9%
- normalised viability (CAL-51 [11]; 30 nM): 47.5%
- normalised viability (MDA-MB-453; 30 nM): 33.6%
- normalised viability (MDA-MB-436 [12]; 1000 nM): 32.5%
- normalised viability (BT-549; 1000 nM): 18.7%
- normalised viability (HDQ-P1 [13]; 30 nM): 53.1%
- normalised viability (DU-4475 [14]; 30 nM): 75.8%
- normalised viability (CAL-148; 30 nM): 53%
- normalised viability (SK-BR-3 [15]; 1000 nM): 13%
- normalised viability (HCC1143 [16]; 1000 nM): 32.5%
- normalised viability (BT-474 [17]; 1000 nM): 26.9%
- normalised viability (MFM-223; 1000 nM): 18%
- normalised viability (MDA-MB-468; 1000 nM): 29.1%
- normalised viability (HCC1599 [18]; 1000 nM): 46.4%
- normalised viability (HCC1937 [19]; 100 nM): 42.6%
- normalised viability (CAL-85-1 [20]; 10 nM): 79.8%
- normalised viability (CAL-51 [21]; 10 nM): 67.4%
- normalised viability (MDA-MB-436 [22]; 100 nM): 70.7%
- normalised viability (HDQ-P1 [23]; 10 nM): 76.8%
- normalised viability (SK-BR-3 [24]; 100 nM): 23.6%
- normalised viability (HCC1143 [25]; 100 nM): 55.8%
- normalised viability (BT-474 [26]; 100 nM): 52.2%
- normalised viability (HCC1599 [27]; 100 nM): 65.9%

Compound: CN1CCN(CCOc2cc(OC3CCOCC3)c3c(Nc4c(Cl)ccc5c4OCO5)ncnc3c2)CC1 [Saracatinib]
- normalised viability (MDA-MB-231 [1]; 10000 nM): 60.6%
- normalised viability (HCC1937 [2]; 10000 nM): 116%
- normalised viability (CAL-51 [3]; 100 nM): 99.1%
- normalised viability (DU-4475 [4]; 100 nM): 98.9%
- normalised viability (SK-BR-3 [5]; 10000 nM): 39.7%
- normalised viability (BT-474 [6]; 10000 nM): 42.4%
- normalised viability (HCC1599 [7]; 10000 nM): 83.7%
- normalised viability (MDA-MB-231 [8]; 1000 nM): 61.6%
- normalised viability (CAL-120; 1000 nM): 71.9%
- normalised viability (HCC1937 [9]; 1000 nM): 85%
- normalised viability (Hs578T; 1000 nM): 93.8%
- normalised viability (CAL-85-1 [10]; 30 nM): 82.6%
- normalised viability (CAL-51 [11]; 30 nM): 103%
- normalised viability (MDA-MB-453; 30 nM): 101%
- normalised viability (MDA-MB-436 [12]; 1000 nM): 117%
- normalised viability (BT-549; 1000 nM): 85.9%
- normalised viability (HDQ-P1 [13]; 30 nM): 107%
- normalised viability (DU-4475 [14]; 30 nM): 96.3%
- normalised viability (CAL-148; 30 nM): 78.7%
- normalised viability (SK-BR-3 [15]; 1000 nM): 90%
- normalised viability (HCC1143 [16]; 1000 nM): 70.6%
- normalised viability (BT-474 [17]; 1000 nM): 85.2%
- normalised viability (MFM-223; 1000 nM): 102%
- normalised viability (MDA-MB-468; 1000 nM): 87.2%
- normalised viability (HCC1599 [18]; 1000 nM): 98%
- normalised viability (HCC1937 [19]; 100 nM): 96.2%
- normalised viability (CAL-85-1 [20]; 10 nM): 93.9%
- normalised viability (CAL-51 [21]; 10 nM): 106%
- normalised viability (MDA-MB-436 [22]; 100 nM): 109%
- normalised viability (HDQ-P1 [23]; 10 nM): 104%
- normalised viability (SK-BR-3 [24]; 100 nM): 85.3%
- normalised viability (HCC1143 [25]; 100 nM): 84.3%
- normalised viability (BT-474 [26]; 100 nM): 105%
- normalised viability (HCC1599 [27]; 100 nM): 108%
